Measurements: patent US7875647B2, “Heteroaryl-pyrazole derivatives as cannabinoid CB1 receptor antagonists” (Green Cross Corporation, priority 2006, dated 2011)
Like-named read-outs stand apart in the source and are kept apart here.

Assays:
[1] = system: DIO mice; assay: Chronic effects in DIO mice (body weight change, oral administration for 14 days); assay type: in vivo; settings: DIO mice (male C57BL/6J), 10 mg/kg, FIG. 1
Experimental: Male C57BL/6J mice weighing over 38 g were housed 1 per cage on a 12-/12-h light/dark cycle, had free access to food (rodent sterilizable diet) and water, and were experimentally native before testing. Mice were allowed at least 7 days to habituate to the experimental room prior to testing, and testing was conducted during the light period. Mice were maintained and experiments were conducted in accordance with the Institutional Animal Care.
By oral administration, animals received at a volume of 10 ml/kg for 14 days. All control animals received 10% DMSO dissolved in deionized water.
The vehicles 10% DMSO treated group were comprised of 5 mice in oral test. There were 6 mice in each of the other experimental groups (n=6 in each group). By oral administration, the losing weight was checked everyday for the drug treated group and the control group.

[2] = molecular target: T1, Cannabinoid-1 receptor (CB1R) (Rattus norvegicus, UniProt P20272); assay: Cannabinoid-1 receptor (CB1R) binding affinity assay ([3H]CP-55940, rat CB-1 receptor binding protocol); settings: brain tissue of SD rats, [3H]CP-55940, 30° C. 60 min
T1 construct: The tissue obtained from the brain of SD rats was homogenized; from tissue; host or cells: brain of SD rats (membrane pellet of the homogenate)
T1 sequence (P20272 whole entry): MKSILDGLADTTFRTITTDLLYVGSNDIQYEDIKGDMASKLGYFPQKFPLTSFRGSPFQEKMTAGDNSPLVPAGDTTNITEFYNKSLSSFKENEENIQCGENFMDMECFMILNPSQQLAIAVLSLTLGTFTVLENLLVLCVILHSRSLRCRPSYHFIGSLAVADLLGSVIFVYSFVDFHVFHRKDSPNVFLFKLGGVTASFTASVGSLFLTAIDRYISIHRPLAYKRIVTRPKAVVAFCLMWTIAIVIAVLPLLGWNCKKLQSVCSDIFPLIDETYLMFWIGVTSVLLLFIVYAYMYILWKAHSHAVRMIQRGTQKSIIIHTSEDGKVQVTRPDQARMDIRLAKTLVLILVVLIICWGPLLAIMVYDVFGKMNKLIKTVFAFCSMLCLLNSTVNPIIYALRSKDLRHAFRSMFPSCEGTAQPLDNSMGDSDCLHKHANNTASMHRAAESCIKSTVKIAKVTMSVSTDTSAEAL

Row | SMILES | Body weight change from day 0 [1] | IC50 ([2]; read-out: IC50) | IC50 ([2]; IC50(nM))
1 | Cc1c(-c2nnc(C3(C(F)(F)F)CC3)o2)nn(-c2ccc(Cl)cc2Cl)c1-c1ccc(Cl)cc1 [Example 132, 2-(5-(4-chlorophenyl)-1-(2,4-dichlorophenyl)-4-methyl-1H-pyrazol-3-yl)-5-(1-(trifluoromethyl)cyclopropyl)-1,3,4-oxadiazole] | observed on all days | 8.53 nM | 
2 | CCc1c(-c2nnc(C3(C(F)(F)F)CC3)o2)nn(-c2ccc(Cl)cc2Cl)c1-c1ccc(Cl)cc1 [Example 155, 2-(5-(4-chlorophenyl)-1-(2,4-dichlorophenyl)-4-ethyl-1H-pyrazol-3-yl)-5-(1-(trifluoromethyl)cyclopropyl)-1,3,4-oxadiazole] | observed on all days |  | 
3 | CC(C)(C)c1nnc(-c2nn(-c3ccc(Cl)cc3Cl)c(-c3ccc(Cl)cc3)c2Cn2cncn2)s1 [Example 502, 2-(4-((1H-1,2,4-triazol-1-yl)methyl)-5-(4-chlorophenyl)-1-(2,4-dichlorophenyl)-1H-pyrazol-3-yl)-5-tert-butyl-1,3,4-thiadiazole] | observed on all days |  | 
4 | Cc1c(-c2ncc(C3CCCC3)o2)nn(-c2ccc(Cl)cc2Cl)c1-c1ccc(Cl)cc1 [Example 643, 2-(5-(4-chlorophenyl)-1-(2,4-dichlorophenyl)-4-methyl-1H-pyrazol-3-yl)-5-cyclopentyloxazole] |  | 65.5 nM | 
5 | Cc1c(-c2ncc(C(C)(C)C)o2)nn(-c2ccc(Cl)cc2Cl)c1-c1ccc(Cl)cc1 [Example 644, 5-tert-butyl-2-(5-(4-chlorophenyl)-1-(2,4-dichlorophenyl)-4-methyl-1H-pyrazol-3-yl)oxazole] |  |  | 14.2 nM
6 | Cc1c(-c2ncc(CC(C)C)s2)nn(-c2ccc(Cl)cc2Cl)c1-c1ccc(Cl)cc1 [Example 646, 2-(5-(4-chlorophenyl)-1-(2,4-dichlorophenyl)-4-methyl-1H-pyrazol-3-yl)-5-isobutylthiazole] |  | 112 nM | 
7 | Cc1c(-c2ncc(C3CCCC3)s2)nn(-c2ccc(Cl)cc2Cl)c1-c1ccc(Cl)cc1 [Example 648, 2-(5-(4-chlorophenyl)-1-(2,4-dichlorophenyl)-4-methyl-1H-pyrazol-3-yl)-5-cyclopentylthiazole] |  | 69.4 nM | 
8 | Cc1c(-c2ncc(C(C)(C)C)s2)nn(-c2ccc(Cl)cc2Cl)c1-c1ccc(Cl)cc1 [Example 649, 5-tert-butyl-2-(5-(4-chlorophenyl)-1-(2,4-dichlorophenyl)-4-methyl-1H-pyrazol-3-yl)thiazole] |  | 12.7 nM | 
9 | Cc1c(-c2cc(C(C)(C)C)on2)nn(-c2ccc(Cl)cc2Cl)c1-c1ccc(Cl)cc1 [Example 650, 5-tert-butyl-3-(5-(4-chlorophenyl)-1-(2,4-dichlorophenyl)-4-methyl-1H-pyrazol-3-yl)isoxazole] |  | 84.1 nM | 
10 | Cc1c(-c2cc(C(C)(C)C)no2)nn(-c2ccc(Cl)cc2Cl)c1-c1ccc(Cl)cc1 [Example 651, 3-tert-butyl-5-(5-(4-chlorophenyl)-1-(2,4-dichlorophenyl)-4-methyl-1H-pyrazol-3-yl)isoxazole] |  | 95.2 nM | 
11 | Cc1c(C(=O)NN2CCCCC2)nn(-c2ccc(Cl)cc2Cl)c1-c1ccc(Cl)cc1 [rimonabant, reference compound] | observed on all days |  | 
